Assay results as given in patent US20190248834A1, “ENDOMORPHIN-2, TETRAPEPTIDE DERIVATIVES THEREOF, AND USES THEREOF” (priority 2016, published 2019).
Non-standard residues stand in square brackets, D forms with d. pGlu = O=C1CC[C@@H](C(=O)O)N1

Legend:
[1] = tested on: sore subcutaneous lipomas; assay: Example 35: analgesic effect on soreness of subcutaneous lipomas, topical; type: in vivo, human; conditions: 1% (w/v) in WEP442, topical
Excerpt: A subject with many subcutaneous lipomas on their arms, torso and thighs that often become painfully sore after being bumped against objects during the course of daily activities, topically applied to tenderly sore lipomas a composition containing 1% (w/v) N-Ac-Tyr-Pro-Phe-Phe-NH2 (SEQ ID NO: 23) in WEP442. Such applications were repeated multiple times over a period of two months.

[2] = tested on: pain in the muscles of the neck; assay: Example 57: analgesic effect on stress pain in muscles of the neck, topical; type: in vivo, human; conditions: 0.6% (w/v) in WEP442, topical
Description: A farmer suffered substantial pain in the muscles of their neck the day after ploughing a field for several hours. During that time, they had almost constantly strained their neck muscles looking backward to monitor the performance of the plough behind. The pain was such that it disabled them from turning their head even slightly. […] Reapplication of the solution at that time again relieved the pain for another 4 hours. With repeated applications, they were able to perform usual farm maintenance work for the entire day. After a night's rest, the pain subsided spontaneously.

Compound: CC(=O)N[C@@H](Cc1ccc(O)cc1)C(=O)N1CCC[C@H]1C(=O)N[C@@H](Cc1ccccc1)C(=O)N[C@@H](Cc1ccccc1)C(N)=O [N-Ac-Tyr-Pro-Phe-Phe-NH2]
- time to relief [1]: ≤ 1 min
- relief of soreness ([1]; repeated over two months): relieved all feelings of soreness

Compound: N-Pg-Tyr-Pro-Phe-Phe-NH2 ([pGlu]YPFF-NH2; SMILES NC(=O)[C@H](Cc1ccccc1)NC(=O)[C@H](Cc1ccccc1)NC(=O)[C@@H]1CCCN1C(=O)[C@H](Cc1ccc(O)cc1)NC(=O)[C@@H]1CCC(=O)N1)
- duration of pain relief [2]: about 4 hours
- pain relief [2]: almost completely relieved
